{"source": "PubChem BioAssay AID192", "about": "(DTP/NCI, 2004)", "test_system": "BDF1 mice, B16 melanoma ip, median survival T/C", "test": "NCI In Vivo Anticancer Drug Screen. Data for tumor model B16 Melanoma (intraperitoneal) in B6D2F1 (BDF1) mice", "details": "endpoint: median survival time, higher = longer survival", "method_in_brief": "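Read-out: survival or tumor size, given as treated/control ratio. Controls received vehicle only; animals bore transplantable tumors.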", "note": "“And” between values parts separate entries of the source, which are not always exact repeats. Equal values may be shown once. Toxic doses and inconclusive results are not listed.", "data": [{"smiles": "CC12CCC(O)CC1CCC1C2CCC2(C)C(C3=CC(=O)OC3)CCC12O", "note": "(configuration not stated)", "values": [{"measurement": "T/C", "setting": "dose: 2.0 mg/kg/injection, schedule: Q01DX009 (ip), vehicle: Klucel (hydroxypropylcellulose) (HPC)", "value": "105 % of control"}, {"measurement": "T/C", "setting": "dose: 4.0 mg/kg/injection, schedule: Q01DX009 (ip), vehicle: Klucel (hydroxypropylcellulose) (HPC)", "value": "96 % of control"}, {"measurement": "T/C", "setting": "dose: 8.0 mg/kg/injection, schedule: Q01DX009 (ip), vehicle: Klucel (hydroxypropylcellulose) (HPC)", "value": "98 % of control"}]}, {"smiles": "COC(=O)C1=C(N)CCc2ccccc21", "values": [{"measurement": "T/C", "setting": "dose: 100.0 mg/kg/injection, schedule: Q01DX009 (ip), vehicle: saline with Tween-80", "value": "90 % of control"}, {"measurement": "T/C", "setting": "dose: 200.0 mg/kg/injection, schedule: Q01DX009 (ip), vehicle: saline with Tween-80", "value": "95 % of control"}]}, {"smiles": "CC[C@]1(O)C[C@H]2CN(CCc3c([nH]c4ccccc34)[C@@](C(=O)OC)(c3cc4c(cc3OC)N(C=O)[C@H]3[C@@](O)(C(=O)OC)[C@H](OC(C)=O)[C@]5(CC)C=CCN6CC[C@]43[C@@H]65)C2)C1", "values": [{"measurement": "T/C", "setting": "dose: 0.06 mg/kg/injection, schedule: Q01DX009 (ip), vehicle: saline", "value": "154 % of control"}, {"measurement": "T/C", "setting": "dose: 0.06 mg/kg/injection, schedule: Q01DX009 (ip), vehicle: water", "value": "168 % of control"}, {"measurement": "T/C", "setting": "dose: 0.06 mg/kg/injection, schedule: Q01DX017 (ip), vehicle: saline", "value": "156 % of control"}, {"measurement": "T/C", "setting": "dose: 0.08 mg/kg/injection, schedule: Q01DX009 (ip), vehicle: water", "value": "123 % of control"}, {"measurement": "T/C", "setting": "dose: 0.12 mg/kg/injection, schedule: Q04DX003 (ip), vehicle: saline", "value": "123 % of control"}, {"measurement": "T/C", "setting": "dose: 0.13 mg/kg/injection, schedule: Q01DX017 (ip), vehicle: saline", "value": "181 % of control"}, {"measurement": "T/C", "setting": "dose: 0.13 mg/kg/injection, schedule: Q04DX003 (ip), vehicle: saline", "value": "110 % of control"}, {"measurement": "T/C", "setting": "dose: 0.18 mg/kg/injection, schedule: Q01DX005 (ip), vehicle: saline", "value": "121 % of control"}, {"measurement": "T/C", "setting": "dose: 0.2 mg/kg/injection, schedule: Q01DX009 (ip), vehicle: saline", "value": "152 % of control and 171 % of control"}, {"measurement": "T/C", "setting": "dose: 0.23 mg/kg/injection, schedule: Q04DX003 (ip), vehicle: water", "value": "119 % of control and 121 % of control"}, {"measurement": "T/C", "setting": "dose: 0.25 mg/kg/injection, schedule: Q01DX009 (ip), vehicle: water", "value": "176 % of control and 189 % of control"}, {"measurement": "T/C", "setting": "dose: 0.25 mg/kg/injection, schedule: Q01DX017 (ip), vehicle: saline", "value": "197 % of control"}, {"measurement": "T/C", "setting": "dose: 0.3 mg/kg/injection, schedule: Q01DX005 (ip), vehicle: saline", "value": "119 % of control"}, {"measurement": "T/C", "setting": "dose: 0.36 mg/kg/injection, schedule: Q01DX009 (ip), vehicle: water", "value": "163 % of control"}, {"measurement": "T/C", "setting": "dose: 0.36 mg/kg/injection, schedule: Q04DX003 (ip), vehicle: saline", "value": "114 % of control"}, {"measurement": "T/C", "setting": "dose: 0.39 mg/kg/injection, schedule: Q04DX003 (ip), vehicle: saline", "value": "124 % of control"}, {"measurement": "T/C", "setting": "dose: 0.39 mg/kg/injection, schedule: Q04DX003 (ip), vehicle: water", "value": "119 % of control"}, {"measurement": "T/C", "setting": "dose: 0.4 mg/kg/injection, schedule: Q01DX009 (ip), vehicle: saline", "value": "178 % of control"}, {"measurement": "T/C", "setting": "dose: 0.5 mg/kg/injection, schedule: Q01DX001 (ip), vehicle: saline", "value": "120 % of control"}, {"measurement": "T/C", "setting": "dose: 0.5 mg/kg/injection, schedule: Q01DX009 (ip), vehicle: water", "value": "155 % of control and 163 % of control and 192 % of control"}, {"measurement": "T/C", "setting": "dose: 0.5 mg/kg/injection, schedule: Q04DX003 (ip), vehicle: saline", "value": "154 % of control"}, {"measurement": "T/C", "setting": "dose: 0.5 mg/kg/injection, schedule: Q04DX005 (ip), vehicle: saline", "value": "163 % of control"}, {"measurement": "T/C", "setting": "dose: 0.54 mg/kg/injection, schedule: Q04DX003 (ip), vehicle: saline", "value": "157 % of control"}, {"measurement": "T/C", "setting": "dose: 0.6 mg/kg/injection, schedule: Q04DX003 (ip), vehicle: saline", "value": "150 % of control and 152 % of control and 176 % of control"}, {"measurement": "T/C", "setting": "dose: 0.65 mg/kg/injection, schedule: Q01DX001 (ip), vehicle: water", "value": "118 % of control and 120 % of control"}, {"measurement": "T/C", "setting": "dose: 0.65 mg/kg/injection, schedule: Q04DX003 (ip), vehicle: saline", "value": "102 % of control"}, {"measurement": "T/C", "setting": "dose: 0.75 mg/kg/injection, schedule: Q04DX003 (ip), vehicle: saline", "value": "152 % of control"}, {"measurement": "T/C", "setting": "dose: 0.8 mg/kg/injection, schedule: Q04DX003 (ip), vehicle: water", "value": "116 % of control"}, {"measurement": "T/C", "setting": "dose: 1.0 mg/kg/injection, schedule: Q01DX001 (ip), vehicle: saline", "value": "120 % of control"}, {"measurement": "T/C", "setting": "dose: 1.0 mg/kg/injection, schedule: Q04DX005 (ip), vehicle: saline", "value": "181 % of control"}, {"measurement": "T/C", "setting": "dose: 1.08 mg/kg/injection, schedule: Q01DX001 (ip), vehicle: water", "value": "124 % of control"}, {"measurement": "T/C", "setting": "dose: 1.08 mg/kg/injection, schedule: Q04DX003 (ip), vehicle: saline", "value": "156 % of control"}, {"measurement": "T/C", "setting": "dose: 1.2 mg/kg/injection, schedule: Q04DX003 (ip), vehicle: saline", "value": "160 % of control and 198 % of control"}, {"measurement": "T/C", "setting": "dose: 1.5 mg/kg/injection, schedule: Q04DX003 (ip), vehicle: saline", "value": "150 % of control and 158 % of control"}, {"measurement": "T/C", "setting": "dose: 1.67 mg/kg/injection, schedule: Q04DX003 (ip), vehicle: saline", "value": "54 % of control"}, {"measurement": "T/C", "setting": "dose: 1.8 mg/kg/injection, schedule: Q01DX001 (ip), vehicle: water", "value": "122 % of control and 124 % of control"}, {"measurement": "T/C", "setting": "dose: 1.8 mg/kg/injection, schedule: Q04DX003 (ip), vehicle: saline", "value": "159 % of control"}, {"measurement": "T/C", "setting": "dose: 1.8 mg/kg/injection, schedule: Q04DX003 (ip), vehicle: water", "value": "151 % of control"}, {"measurement": "T/C", "setting": "dose: 2.0 mg/kg/injection, schedule: Q04DX003 (ip), vehicle: saline", "value": "173 % of control and 180 % of control"}, {"measurement": "T/C", "setting": "dose: 3.0 mg/kg/injection, schedule: Q04DX003 (ip), vehicle: saline", "value": "67 % of control"}, {"measurement": "T/C", "setting": "dose: 15.63 micrograms/kg/injection, schedule: Q01DX009 (ip), vehicle: water", "value": "110 % of control"}, {"measurement": "T/C", "setting": "dose: 62.5 micrograms/kg/injection, schedule: Q01DX009 (ip), vehicle: water", "value": "150 % of control"}, {"measurement": "T/C", "setting": "dose: 78.0 micrograms/kg/injection, schedule: Q01DX009 (ip), vehicle: saline", "value": "165 % of control"}, {"measurement": "T/C", "setting": "dose: 78.0 micrograms/kg/injection, schedule: Q01DX009 (ip), vehicle: water", "value": "123 % of control"}, {"measurement": "T/C", "setting": "dose: 125.0 micrograms/kg/injection, schedule: Q01DX009 (ip), vehicle: water", "value": "159 % of control"}, {"measurement": "T/C", "setting": "dose: 130.0 micrograms/kg/injection, schedule: Q01DX009 (ip), vehicle: saline", "value": "157 % of control"}, {"measurement": "T/C", "setting": "dose: 216.0 micrograms/kg/injection, schedule: Q01DX009 (ip), vehicle: saline", "value": "183 % of control"}, {"measurement": "T/C", "setting": "dose: 216.0 micrograms/kg/injection, schedule: Q04DX003 (ip), vehicle: saline", "value": "123 % of control"}, {"measurement": "T/C", "setting": "dose: 250.0 micrograms/kg/injection, schedule: Q01DX009 (ip), vehicle: water", "value": "175 % of control"}, {"measurement": "T/C", "setting": "dose: 360.0 micrograms/kg/injection, schedule: Q01DX009 (ip), vehicle: saline", "value": "160 % of control"}, {"measurement": "T/C", "setting": "dose: 389.0 micrograms/kg/injection, schedule: Q04DX003 (ip), vehicle: saline", "value": "158 % of control"}, {"measurement": "T/C", "setting": "dose: 600.0 micrograms/kg/injection, schedule: Q04DX003 (ip), vehicle: saline", "value": "155 % of control"}, {"measurement": "T/C", "setting": "dose: 648.0 micrograms/kg/injection, schedule: Q04DX003 (ip), vehicle: saline", "value": "153 % of control"}, {"measurement": "T/C", "setting": "dose: 1000.0 micrograms/kg/injection, schedule: Q04DX003 (ip), vehicle: saline", "value": "152 % of control and 166 % of control"}, {"measurement": "T/C", "setting": "dose: 1080.0 micrograms/kg/injection, schedule: Q04DX003 (ip), vehicle: saline", "value": "157 % of control"}, {"measurement": "T/C", "setting": "dose: 1670.0 micrograms/kg/injection, schedule: Q04DX003 (ip), vehicle: saline", "value": "179 % of control"}, {"measurement": "T/C", "setting": "dose: 1800.0 micrograms/kg/injection, schedule: Q04DX003 (ip), vehicle: saline", "value": "174 % of control"}]}]}
